Results: US8901301B2, “Pyrrolo[2,3-]pyridine kinase inhibitors” (Plexxikon Inc., priority 2009, dated 2014)

Assays:
[1] = biological target: T1, B-Raf (Homo sapiens, UniProt P15056); test: Raf biochemical kinase assay (biotin-MEK1 phosphorylation), B-Raf; details: 100 μM ATP
T1 construct: purchased Upstate Biotechnology
Protocol: Assays for biochemical and cell based activity are known in the art, for example, as described in PCT publication WO 2007/002433, the disclosure of which is hereby incorporated by reference as it relates to such assays. For example, the biochemical activity IC50 values are determined with respect to inhibition of A-Raf kinase activity, B-Raf kinase activity, c-Raf-1 kinase activity, or B-Raf V600E kinase activity, where inhibition of phosphorylation of a peptide substrate is measured as a function of compound concentration. Compounds to be tested are diluted in dimethyl sulfoxide to a concentration of 0.1 mM. These are serially diluted 15 μL into 30 μL of dimethyl sulfoxide seven times in 96 well plates for a total of 8 dilution points, and for each dilution point 1 μL is added to a well of an assay plate. Plates are prepared such that each well in a 384 well plate contains 1 μL of compound in 10 μL volume with 0.1 ng Raf enzyme (i.e. any of A-Raf, B-Raf, c-Raf-1 or B-Raf V600E, Upstate Biotechnology or prepared by methods known to one of skill in the art), 50 mM HEPES, pH 7.0, 50 mM NaCl, 2 mM MgCl2, 1 mM MnCl2, 0.01% Tween-20, 1 mM DTT, and 100 nM biotin-MEK1 as substrate. The reaction is started with addition of 10 μL of 200 μM ATP (i.e. final 100 μM ATP). After incubation of the kinase reaction for 45 minutes at room temperature, 5 μL/well of Stop Solution is added (25 mM Hepes pH 7.5, 100 mM EDTA, 0.01% BSA with donor beads (Streptavidin coated beads, Perkin Elmer), acceptor beads (Protein A coated, Perkin Elmer), and anti phosphor MEK1/2 antibody (CellSignal), each at final concentration 10 μg/mL). The plates are incubated for 3 hours at room temperature and read on Envision reader (Perkin Elmer). Phosphorylation of Mek1 results in binding of the anti-phosphor-MEK1/2 antibody and association of the donor and acceptor beads such that signal correlates with kinase activity. The signal vs. compound concentration is used to determine the IC50.

[2] = biological target: T2, CYP3A4(BQ) (Homo sapiens, UniProt P08684); test: CYP inhibition (fluorescent substrate), CYP3A4(BQ); assay type: in vitro ADME; details: read-out: Cyp IC50 (μM) 3A4(BQ)
T2 construct: purchased BD Biosciences
T2 sequence (P08684 whole entry): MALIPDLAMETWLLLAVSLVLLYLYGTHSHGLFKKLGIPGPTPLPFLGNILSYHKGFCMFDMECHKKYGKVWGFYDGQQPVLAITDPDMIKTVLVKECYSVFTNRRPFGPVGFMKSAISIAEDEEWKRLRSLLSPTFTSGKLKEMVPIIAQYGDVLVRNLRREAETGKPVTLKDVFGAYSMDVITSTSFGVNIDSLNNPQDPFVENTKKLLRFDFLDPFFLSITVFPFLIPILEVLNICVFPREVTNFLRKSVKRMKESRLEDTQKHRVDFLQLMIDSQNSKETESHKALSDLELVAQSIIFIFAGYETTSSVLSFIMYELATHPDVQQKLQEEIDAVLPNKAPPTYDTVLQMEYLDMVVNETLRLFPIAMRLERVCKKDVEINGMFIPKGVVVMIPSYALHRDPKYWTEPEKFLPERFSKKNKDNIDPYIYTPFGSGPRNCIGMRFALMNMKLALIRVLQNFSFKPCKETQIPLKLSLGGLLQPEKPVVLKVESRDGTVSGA
Protocol: (§1) CYP (Cytochrome P450) enzymes are the major drug metabolizing enzymes present in the liver. The inhibition of CYP enzyme activity (IC50) for each of CYP1A2, CYP2C19, CYP2C9, CYP2D6, CYP3A4(BFC) and CYP3A4(BQ) is determined for compounds, where inhibition of metabolism of a known substrate leads to a decrease in the fluorescence of the metabolized product. The fluorescence of the product is monitored as a function of compound concentration. Compounds are dissolved in dimethyl sulfoxide to a concentration of 100 mM. These are diluted 1 μL into 82 μL of acetonitrile. An 11 μL aliquot of this solution is then added to 204 μL of cofactor mix (1.3% NADPH Regeneration system Solution A, 1.04% NADPH Regeneration system Solution B from BD Biosciences, 5% acetonitrile and 0.05% dimethyl sulfoxide). These are then serially diluted 1:1 (160 μL to 160 μL co-factor mix) for a total of 10 points. A 10 μL aliquot of this final mixture is dispensed into 384 well assay plates and incubated for 10 minutes at 37° C. […] Assay plates are incubated at 37° C. (CYP1A2-15 min; CYP2C9-45 min; CYP2C19, 2D6 and 3A4-30 min) and read in a Tecan Safire 2 plate reader (CYP1A2, 2C19 and 3A4 409 ex/460 em; CYP2C9 and 2D6 409 ex/530 em). The signal versus compound concentration is used to determine the IC50. The enzymes and substrates for this assay are obtained from BD Biosciences.

[3] = biological target: T3, CYP2C9 (Homo sapiens, UniProt P11712); test: CYP inhibition (fluorescent substrate), CYP2C9; assay type: in vitro ADME; details: substrate MFC; read-out: Cyp IC50 (μM) 2C9
T3 construct: purchased BD Biosciences
T3 sequence (P11712 whole entry): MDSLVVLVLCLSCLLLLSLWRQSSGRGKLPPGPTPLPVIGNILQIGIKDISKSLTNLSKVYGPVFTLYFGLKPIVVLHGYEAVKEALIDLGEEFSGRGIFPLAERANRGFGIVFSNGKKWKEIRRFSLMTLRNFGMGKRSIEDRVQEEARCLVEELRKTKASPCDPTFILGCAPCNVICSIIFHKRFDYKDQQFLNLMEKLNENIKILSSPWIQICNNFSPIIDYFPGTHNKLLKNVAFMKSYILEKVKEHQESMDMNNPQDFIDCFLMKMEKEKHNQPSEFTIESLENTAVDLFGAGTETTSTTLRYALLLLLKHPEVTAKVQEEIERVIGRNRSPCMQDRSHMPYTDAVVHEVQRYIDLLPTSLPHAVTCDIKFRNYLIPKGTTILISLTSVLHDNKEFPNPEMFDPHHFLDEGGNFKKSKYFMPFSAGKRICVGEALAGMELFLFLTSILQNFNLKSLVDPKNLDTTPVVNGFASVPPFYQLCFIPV
Protocol: as §1

[4] = test system: SK-MEL-2 cells; test: Cell growth inhibition (Cell Titer Glo), SK-MEL-2; assay type: cell-based; details: Homo sapiens, SK-MEL-2, 72 h; wild-type B-RAF cell line, 3 days
Protocol: Compounds are assessed in a variety of cell based assays, employing cells with or without B-Raf V600E mutation, for example cell lines with B-Raf V600E mutation (A375 and COLO205), as well as tumorigenic cell lines with wild-type B-RAF (SW620 and SK-MEL-2). Reagent and assay conditions are as follows:
SK-MEL-2 cells growth medium: • Minimum Eagle essential medium, 2 mM L-glutamine, 1.5 g/L sodium bicarbonate, 0.1 mM non-essential amino acids, 1.0 mM sodium pyruvate, 10% fetal bovine serum. • On day 1, cells are seeded in growth media in 200 μL per well in a 96-well polystyrene tissue culture plate at 2,000 cells per well (A375, COLO205, SK-MEL-2) or 5,000 cells per well for SW620, and incubated at 37° C. and 5% CO2 overnight. • On day 2, compound at 4 mM in dimethyl sulfoxide is serially diluted 1:4 (10 μL with 30 μL dimethyl sulfoxide) seven times for a total of 8 concentration points. For each dilution point a 1 μL aliquot is added to a well containing cells (highest dilution point at 20 μM), with 1 μL of dimethyl sulfoxide as a negative control (each sample at 0.5% dimethyl sulfoxide). The cells are incubated for 3 days at 37° C. in 5% CO2. • On day 5, Cell Titer Glo (Promega) is thawed and added 100 μL to each well and the plate shaken for 1-2 minutes. The plates are incubated for 10 minutes at room temperature, then […] signal is read (e.g. on Safire reader). The measured fluoresence correlates directly with cell number, such that the reading as a function of compound concentration is used to determine the IC50 value.

[5] = test system: Colo205 colorectal tumor cells with BRaf V600E mutation; test: Colo205 xenograft mouse model; assay type: in vivo; details: female nu/nu mice, 10 mg/kg daily for fourteen days, vs vehicle control
Protocol: Female nu/nu mice are implanted with Colo-205 trocar fragments from donor mice, sub-cutaneous and high in the axilla. Tumor growth is monitored to approximately 100 mg size, and mice are distributed to treatment groups such that the mean tumor burden within a group is within 10% of the overall mean tumor burden. Mice are treated with vehicle control, positive control or compound (8 mice per group) in 5% DMSO and 95% CMC (1%), with compound dosed at 10 mg/kg daily for fourteen days. Mice are observed daily, with tumor burden and body weights measured twice a week. Animals with tumor burden above 1500-2000 mg and any animals in moribund condition are euthanized. The average tumor growth of vehicle control group mice is compared to the average tumor growth of the test compound mice. Percent tumor growth inhibition is calculated as 100×[(tumor growth control-tumor growth test compound)/tumor growth control].

T1 sequence (P15056 whole entry): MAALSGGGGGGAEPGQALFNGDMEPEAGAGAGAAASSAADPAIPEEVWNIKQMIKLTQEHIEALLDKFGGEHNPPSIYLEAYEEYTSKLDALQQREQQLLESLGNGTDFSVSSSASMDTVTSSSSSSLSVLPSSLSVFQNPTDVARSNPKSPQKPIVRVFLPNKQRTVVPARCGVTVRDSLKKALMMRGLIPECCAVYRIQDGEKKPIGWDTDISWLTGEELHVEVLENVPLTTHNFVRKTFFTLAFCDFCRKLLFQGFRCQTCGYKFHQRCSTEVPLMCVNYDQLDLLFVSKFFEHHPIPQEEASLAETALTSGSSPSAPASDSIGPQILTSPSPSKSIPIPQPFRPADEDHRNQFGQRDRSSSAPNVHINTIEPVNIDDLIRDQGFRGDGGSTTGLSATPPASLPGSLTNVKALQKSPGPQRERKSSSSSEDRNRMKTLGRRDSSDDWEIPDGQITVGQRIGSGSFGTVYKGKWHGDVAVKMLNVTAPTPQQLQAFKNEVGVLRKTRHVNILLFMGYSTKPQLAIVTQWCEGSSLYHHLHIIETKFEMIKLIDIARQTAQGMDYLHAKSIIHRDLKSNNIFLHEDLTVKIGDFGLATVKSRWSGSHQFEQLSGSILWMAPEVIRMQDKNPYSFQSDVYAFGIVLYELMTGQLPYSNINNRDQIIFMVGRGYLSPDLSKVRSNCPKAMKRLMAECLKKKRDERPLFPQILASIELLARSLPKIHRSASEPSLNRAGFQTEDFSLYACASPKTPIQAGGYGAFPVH

| Compound | IC50 [1] [µM] | IC50 [2] [µM] | IC50 [3] [µM] | IC50 [4] [µM] | % Tumor growth inhibition [5] [%] |
| --- | --- | --- | --- | --- | --- |
| N#Cc1cnc2[nH]cc(C(=O)c3c(F)ccc(NS(=O)(=O)c4cccc(F)c4)c3F)c2c1 [Compound P-0005, N-[3-(5-cyano-1H-pyrrolo[2,3-b]pyridine-3-carbonyl)-2,4-difluoro-phenyl]-3-fluoro-benzenesulfonamide] | < 0.01 | 5 to 10 | 5 to 10 | > 20 | 88 |
| CCCS(=O)(=O)Nc1ccc(F)c(C(=O)c2c[nH]c3ncc(C#N)cc23)c1F [Compound P-0002, propane-1-sulfonic acid [3-(5-cyano-1H-pyrrolo[2,3-b]pyridine-3-carbonyl)-2,4-difluoro-phenyl]-amide] | < 0.1 | > 10 | 5 to 10 | > 20 | 80 |
| CCCS(=O)(=O)Nc1ccc(F)c(C(=O)c2c[nH]c3ncc(-c4cnc(OC)nc4)cc23)c1F [Compound P-0001, propane-1-sulfonic acid {2,4-difluoro-3-[5-(2-methoxy-pyrimidin-5-yl)-1H-pyrrolo[2,3-b]pyridine-3-carbonyl]-phenyl}-amide] | < 0.1 | > 10 | 5 to 10 | > 5 | 43 |
| CCCS(=O)(=O)Nc1cccc(C(=O)c2c[nH]c3ncc(C#N)cc23)c1F [Compound P-0003, propane-1-sulfonic acid [3-(5-cyano-1H-pyrrolo[2,3-b]pyridine-3-carbonyl)-2-fluoro-phenyl]-amide] | < 1 | > 10 | > 10 | > 20 | 91 |
| N#Cc1cnc2[nH]cc(C(=O)c3c(F)ccc(NS(=O)(=O)c4cc(F)ccc4F)c3F)c2c1 [Compound P-0004, N-[3-(5-cyano-1H-pyrrolo[2,3-b]pyridine-3-carbonyl)-2,4-difluoro-phenyl]-2,5-difluoro-benzenesulfonamide] | < 0.1 | 5 to 10 | > 10 | > 20 | 103 |

Continued, in another order:

| IC50 [1] [µM] | IC50 [2] [µM] | IC50 [3] [µM] | IC50 [4] [µM] | Compound | % Tumor growth inhibition [5] [%] |
| --- | --- | --- | --- | --- | --- |
| < 1 | < 5 | > 10 | > 20 | CN(C)S(=O)(=O)Nc1ccc(F)c(C(=O)c2c[nH]c3ncc(C#N)cc23)c1F [Compound P-0007, N,N-dimethylamino-sulfonic acid [3-(5-cyano-1H-pyrrolo[2,3-b]pyridine-3-carbonyl)-2,4-difluoro-phenyl]-amide] | 86 |
| < 0.1 | > 10 | > 10 | – | N#Cc1cnc2[nH]cc(C(=O)c3c(F)ccc(NS(=O)(=O)N4CCCC4)c3F)c2c1 [Compound P-0006, pyrrolidine-1-sulfonic acid [3-(5-cyano-1H-pyrrolo[2,3-b]pyridine-3-carbonyl)-2,4-difluoro-phenyl]-amide] | 82 |
